Consider 1 compound from patent publication US20170105997A1, “METHODS OF TREATING CANCER” (Northwestern University, priority 2014, published 2017).

Structures are written as SMILES. pIC50: −log10 of the molar value.

Common to all, as to format: cell-based
Assay [1] has as its system LP1. Description: gIC50 in multiple myeloma cell line LP1 treated with EZH2 inhibitors. Particulars: Homo sapiens, LP-1, t(4;14)+, UTX Hom 1621C>T (Q541X). The procedure: (§1) All cells were grown in RPMI 1640 (Invitrogen) supplemented with 10% heat-inactivated FBS and 1% penicillin/streptomycin.
(§2) Cells were treated with the EZH2 inhibitors below. GSK2816126A is also known as GSK126 and is a compound of Formula I, specifically Compound B as described herein. Data in Table I was used to generate the data in FIG. 14. EZH2 inhibitors of Formula II, III, and IV and Compound C are used to generate gIC50 values and similar results as with GSK126 are found. Additional cell lines are tested with EZH2 inhibitors of Formula I, II, III, IV, Compound B, and Compound C and an improved cell killing, e.g. as measured by gIC50, is seen in cell lines having an increased level of MMSET expression, or a decreased level of UTX enzyme, or both, as compared to a control, e.g. a tissue typed control sample not characterized as having cancerous attributes.

In assay [2] the test system is KMS-11. Description: gIC50 in multiple myeloma cell line KMS-11 treated with EZH2 inhibitors. Particulars: Homo sapiens, t(4;14)+. The procedure: as §1, §2
Assay [3] deals with RPMI-8226. Description: gIC50 in multiple myeloma cell line RPMI-8226 treated with EZH2 inhibitors. Particulars: Homo sapiens, MMSET none, UTX wt. The procedure: as §1, §2
Assay [4] has as its system KMS-12-BM. Nature of the assay: gIC50 in multiple myeloma cell line KMS-12-BM treated with EZH2 inhibitors. Particulars: Homo sapiens, MMSET none, UTX Hom del exons 5-12. The procedure: as §1, §2
In assay [5] the test system is OpM2. Description: gIC50 in multiple myeloma cell line OpM2 treated with EZH2 inhibitors. Particulars: Homo sapiens, OPM-2, t(4;14)+, UTX Het c.197G>A p.G66D. The procedure: as §1, §2

As to `CC[C@H](C)n1cc(C)c2c(C(=O)NCc3c(C)cc(C)[nH]c3=O)cc(-c3ccc(N4CCNCC4)nc3)cc21` [GSK2816126A], the pIC50 in assay [1] was 5.62; in assay [2] it was 5.52; in assay [3], 5.77; in assay [4] it was 5.59; in assay [5], 6.06.

The pIC50 is −log10 of the IC50, conventionally taken in molar units. Low values mean a high IC50, high ones a low IC50.
